Assay in all cases: biochemical
Holding throughout (set-up): Ubiquigent DUB profiler selectivity panel, remaining enzyme activity as % of control
Holding throughout (conditions): read-out: % of control remaining

Experiment [1] concerns the target T1, CYLD (Homo sapiens, UniProt Q9NQC7).
T1 sequence (Q9NQC7 1-956): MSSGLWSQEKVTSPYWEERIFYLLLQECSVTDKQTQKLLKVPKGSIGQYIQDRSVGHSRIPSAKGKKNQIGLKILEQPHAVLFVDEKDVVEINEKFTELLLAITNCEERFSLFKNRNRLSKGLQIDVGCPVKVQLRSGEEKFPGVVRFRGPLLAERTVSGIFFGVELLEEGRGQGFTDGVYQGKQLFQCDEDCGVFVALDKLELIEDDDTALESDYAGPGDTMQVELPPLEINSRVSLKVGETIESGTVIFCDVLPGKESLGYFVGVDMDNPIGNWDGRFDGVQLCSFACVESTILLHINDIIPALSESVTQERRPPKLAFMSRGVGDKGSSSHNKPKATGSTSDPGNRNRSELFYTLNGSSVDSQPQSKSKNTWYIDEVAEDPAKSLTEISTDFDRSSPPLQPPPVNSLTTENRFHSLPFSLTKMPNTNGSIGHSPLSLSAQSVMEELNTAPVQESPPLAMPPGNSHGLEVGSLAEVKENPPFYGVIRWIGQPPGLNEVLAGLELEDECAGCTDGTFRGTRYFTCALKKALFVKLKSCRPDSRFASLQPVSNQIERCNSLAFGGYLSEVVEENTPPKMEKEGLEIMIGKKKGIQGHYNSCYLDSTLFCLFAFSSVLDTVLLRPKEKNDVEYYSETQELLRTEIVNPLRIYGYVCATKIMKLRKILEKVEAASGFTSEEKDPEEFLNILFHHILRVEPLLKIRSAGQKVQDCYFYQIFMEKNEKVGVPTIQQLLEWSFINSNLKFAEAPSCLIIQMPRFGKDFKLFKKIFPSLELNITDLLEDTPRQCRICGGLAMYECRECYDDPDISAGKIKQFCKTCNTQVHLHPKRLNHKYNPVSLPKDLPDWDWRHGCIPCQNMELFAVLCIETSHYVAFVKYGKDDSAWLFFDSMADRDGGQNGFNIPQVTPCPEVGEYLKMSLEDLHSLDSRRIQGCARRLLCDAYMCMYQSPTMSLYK
In a few lines:
(§1)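 CMPD-39 selectivity was profiled at 1-100 μM across >40 DUBs. Cellular engagement used 2 h CMPD-39 pretreatment, then HA-Ub-PA probe for 10 min at 37°C, with USP30 band shift on immunoblot. TOMM20 ubiquitylation was blotted in YFP-PRKN hTERT-RPE1 cells after 1 h antimycin A/oligomycin A (1 μM each).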

Experiment [2] addresses T2, OTUD6A (Homo sapiens, UniProt Q7L8S5).
T2 sequence (Q7L8S5 1-288): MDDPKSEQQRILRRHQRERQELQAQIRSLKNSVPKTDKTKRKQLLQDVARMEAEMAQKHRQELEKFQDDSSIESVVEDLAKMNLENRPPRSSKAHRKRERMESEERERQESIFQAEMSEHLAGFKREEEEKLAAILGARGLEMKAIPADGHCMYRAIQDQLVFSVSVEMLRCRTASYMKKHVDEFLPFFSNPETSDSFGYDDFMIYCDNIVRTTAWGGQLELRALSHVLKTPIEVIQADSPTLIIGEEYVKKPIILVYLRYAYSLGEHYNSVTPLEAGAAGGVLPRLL
In a few lines: as §1

Experiment [3] deals with T3, USP17 (Homo sapiens, UniProt Q6R6M4).
T3 construct: gene USP17L2
T3 sequence (Q6R6M4 1-530): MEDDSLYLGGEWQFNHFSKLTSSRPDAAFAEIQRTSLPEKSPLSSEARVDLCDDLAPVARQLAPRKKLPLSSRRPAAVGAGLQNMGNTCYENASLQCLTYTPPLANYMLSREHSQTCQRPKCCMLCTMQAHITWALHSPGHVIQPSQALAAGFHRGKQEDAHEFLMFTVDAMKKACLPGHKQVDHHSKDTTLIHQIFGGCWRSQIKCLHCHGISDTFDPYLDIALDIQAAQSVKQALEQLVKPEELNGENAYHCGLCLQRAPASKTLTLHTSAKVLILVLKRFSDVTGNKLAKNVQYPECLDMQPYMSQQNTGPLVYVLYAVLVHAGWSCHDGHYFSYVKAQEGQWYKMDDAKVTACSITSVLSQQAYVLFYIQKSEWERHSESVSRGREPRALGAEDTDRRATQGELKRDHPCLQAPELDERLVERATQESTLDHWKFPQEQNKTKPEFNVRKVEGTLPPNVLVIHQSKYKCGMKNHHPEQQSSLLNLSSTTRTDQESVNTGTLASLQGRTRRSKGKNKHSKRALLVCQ
In a few lines:
as §1

Experiment [4] has as its target USP7 (Homo sapiens, UniProt Q93009). The procedure, abridged:
as §1

USP7, sequence (Q93009 whole entry): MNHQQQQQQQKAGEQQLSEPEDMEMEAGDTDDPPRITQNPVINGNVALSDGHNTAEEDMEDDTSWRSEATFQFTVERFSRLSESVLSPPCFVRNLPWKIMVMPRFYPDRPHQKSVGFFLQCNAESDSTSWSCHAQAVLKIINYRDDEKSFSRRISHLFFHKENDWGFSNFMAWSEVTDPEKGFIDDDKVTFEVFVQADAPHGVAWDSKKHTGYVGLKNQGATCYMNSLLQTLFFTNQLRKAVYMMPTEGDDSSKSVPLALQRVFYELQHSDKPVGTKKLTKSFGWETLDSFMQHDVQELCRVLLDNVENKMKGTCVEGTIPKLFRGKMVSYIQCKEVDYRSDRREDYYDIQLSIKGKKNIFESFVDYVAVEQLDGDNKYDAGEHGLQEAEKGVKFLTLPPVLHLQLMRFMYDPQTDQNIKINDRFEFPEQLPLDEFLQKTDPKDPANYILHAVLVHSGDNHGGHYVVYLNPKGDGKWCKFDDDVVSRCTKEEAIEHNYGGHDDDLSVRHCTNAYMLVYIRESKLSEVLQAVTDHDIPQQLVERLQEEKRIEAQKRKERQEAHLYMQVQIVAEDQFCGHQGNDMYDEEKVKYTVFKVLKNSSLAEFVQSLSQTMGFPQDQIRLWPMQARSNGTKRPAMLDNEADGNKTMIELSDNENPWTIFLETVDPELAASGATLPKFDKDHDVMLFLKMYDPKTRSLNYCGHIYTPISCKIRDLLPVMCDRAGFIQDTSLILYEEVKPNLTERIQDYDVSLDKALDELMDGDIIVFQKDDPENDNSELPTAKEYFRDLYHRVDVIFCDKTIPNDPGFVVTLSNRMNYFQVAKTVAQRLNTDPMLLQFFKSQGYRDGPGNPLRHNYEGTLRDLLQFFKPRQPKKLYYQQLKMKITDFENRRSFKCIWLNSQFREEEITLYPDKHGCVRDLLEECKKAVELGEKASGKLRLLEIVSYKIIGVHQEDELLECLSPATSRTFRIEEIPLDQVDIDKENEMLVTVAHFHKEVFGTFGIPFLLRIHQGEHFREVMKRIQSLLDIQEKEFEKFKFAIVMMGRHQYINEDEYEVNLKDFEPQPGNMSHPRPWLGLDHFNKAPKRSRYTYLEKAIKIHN

As for `CC(C)(C)NS(=O)(=O)c1ccc(NC(=O)[C@H](Cc2ccccc2)NC(=O)c2ccc(F)cc2)cc1` [compound 39, CMPD-39], the remaining activity at 1 µM in experiment [1] is 107%; in experiment [2], 103%; in experiment [3], 110%; in experiment [4], 106%. The remaining activity at 10 µM in experiment [1] is 102%; in experiment [2] it was 99.3%; in experiment [3] it was 119%; in experiment [4], 98.4%. The remaining activity at 100 µM was 98% in experiment [1], 101% in experiment [2], 102% in experiment [3] and 94.1% in experiment [4].

Source of the values: paper PMC8645336, “Benchmarking a highly selective USP30 inhibitor for enhancement of mitophagy and pexophagy” (Life Science Alliance, 2021).
